19 molecules from ChEMBL document CHEMBL1136643, “Identification of a novel series of selective 5-HT7 receptor antagonists” (Bioorg Med Chem Lett, 2003) can be followed below.

Assay [1] has as its target 5-hydroxytryptamine receptor 2A (Homo sapiens, UniProt P28223). The assay is described as follows: Binding affinity at human cloned 5-hydroxytryptamine 2A receptor.
Assay [2] addresses 5-hydroxytryptamine receptor 7 (Homo sapiens, UniProt P34969). The assay is described as follows: Binding affinity at human cloned 5-hydroxytryptamine 7 receptor.
Assay [3] addresses T1, 5-hydroxytryptamine receptor 1A (Homo sapiens, UniProt P08908).
T1 sequence (P08908 whole entry): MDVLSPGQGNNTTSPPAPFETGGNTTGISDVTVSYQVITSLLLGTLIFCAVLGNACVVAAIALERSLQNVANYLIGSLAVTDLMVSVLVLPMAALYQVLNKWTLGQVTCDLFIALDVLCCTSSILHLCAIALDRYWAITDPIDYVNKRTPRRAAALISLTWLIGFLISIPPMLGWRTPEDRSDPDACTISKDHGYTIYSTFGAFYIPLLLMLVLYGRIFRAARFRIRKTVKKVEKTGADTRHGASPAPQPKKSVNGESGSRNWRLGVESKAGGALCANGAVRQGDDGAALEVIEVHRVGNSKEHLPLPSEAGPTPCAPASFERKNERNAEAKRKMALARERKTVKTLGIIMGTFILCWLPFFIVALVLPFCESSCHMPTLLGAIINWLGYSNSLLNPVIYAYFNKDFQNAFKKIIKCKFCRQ
The assay is described as follows: Binding affinity towards 5-hydroxytryptamine 1A receptor in human using [3H]8-OH-DPAT as radioligand.

Assay [4] deals with 5-hydroxytryptamine receptor 1B (Homo sapiens, UniProt P28222). The experiment in a line: Binding affinity towards cloned human 5-hydroxytryptamine 1B receptor was determined.
Chain of 5-hydroxytryptamine receptor 1B (P28222 whole entry): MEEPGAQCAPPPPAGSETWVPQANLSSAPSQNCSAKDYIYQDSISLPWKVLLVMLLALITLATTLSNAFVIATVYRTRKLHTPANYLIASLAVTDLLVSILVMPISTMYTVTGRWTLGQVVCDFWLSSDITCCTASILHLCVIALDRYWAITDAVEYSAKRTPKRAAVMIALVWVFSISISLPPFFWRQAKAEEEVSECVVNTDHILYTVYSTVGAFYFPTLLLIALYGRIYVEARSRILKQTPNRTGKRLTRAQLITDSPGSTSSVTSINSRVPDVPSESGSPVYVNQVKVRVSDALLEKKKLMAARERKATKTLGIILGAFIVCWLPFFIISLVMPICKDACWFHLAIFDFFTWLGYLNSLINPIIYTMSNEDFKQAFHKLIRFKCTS
The target in assay [5] is 5-hydroxytryptamine receptor 1E (Homo sapiens, UniProt P28566). The experiment in a line: Binding affinity towards cloned human 5-hydroxytryptamine 1E receptor was determined.
Chain of 5-hydroxytryptamine receptor 1E (P28566 whole entry): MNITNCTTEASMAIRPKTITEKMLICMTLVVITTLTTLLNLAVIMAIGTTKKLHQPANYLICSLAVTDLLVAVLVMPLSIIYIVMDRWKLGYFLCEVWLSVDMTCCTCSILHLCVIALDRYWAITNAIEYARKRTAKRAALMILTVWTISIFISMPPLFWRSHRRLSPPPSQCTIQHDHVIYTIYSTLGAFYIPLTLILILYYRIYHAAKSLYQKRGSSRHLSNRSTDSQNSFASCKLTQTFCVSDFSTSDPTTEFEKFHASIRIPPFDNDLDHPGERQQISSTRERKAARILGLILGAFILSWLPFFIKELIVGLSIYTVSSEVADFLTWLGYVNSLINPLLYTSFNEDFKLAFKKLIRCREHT
Assay [6] deals with 5-hydroxytryptamine receptor 1D (Homo sapiens, UniProt P28221). The assay is described as follows: Binding affinity towards cloned human 5-hydroxytryptamine 1D receptor.
Assay [7] addresses T2, 5-hydroxytryptamine receptor 2C (Homo sapiens, UniProt P28335).
T2 sequence (P28335 whole entry): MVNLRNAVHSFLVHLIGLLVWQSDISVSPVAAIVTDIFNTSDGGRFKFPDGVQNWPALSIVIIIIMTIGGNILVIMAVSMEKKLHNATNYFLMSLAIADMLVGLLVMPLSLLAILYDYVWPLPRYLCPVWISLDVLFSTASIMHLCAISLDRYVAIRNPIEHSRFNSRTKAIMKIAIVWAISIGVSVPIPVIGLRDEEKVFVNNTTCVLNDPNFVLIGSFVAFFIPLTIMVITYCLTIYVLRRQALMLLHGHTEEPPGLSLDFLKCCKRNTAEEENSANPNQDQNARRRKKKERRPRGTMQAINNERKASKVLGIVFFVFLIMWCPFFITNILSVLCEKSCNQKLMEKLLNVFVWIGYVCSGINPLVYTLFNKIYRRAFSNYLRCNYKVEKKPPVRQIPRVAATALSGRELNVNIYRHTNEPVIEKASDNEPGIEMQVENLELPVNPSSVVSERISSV
The experiment in a line: Binding affinity towards cloned human 5-hydroxytryptamine 2C receptor was determined.

Assay [8] deals with 5-hydroxytryptamine receptor 2B (Homo sapiens, UniProt P41595). The assay is described as follows: Binding affinity towards cloned human 5-hydroxytryptamine 2B receptor was determined.
Chain of 5-hydroxytryptamine receptor 2B (P41595 whole entry): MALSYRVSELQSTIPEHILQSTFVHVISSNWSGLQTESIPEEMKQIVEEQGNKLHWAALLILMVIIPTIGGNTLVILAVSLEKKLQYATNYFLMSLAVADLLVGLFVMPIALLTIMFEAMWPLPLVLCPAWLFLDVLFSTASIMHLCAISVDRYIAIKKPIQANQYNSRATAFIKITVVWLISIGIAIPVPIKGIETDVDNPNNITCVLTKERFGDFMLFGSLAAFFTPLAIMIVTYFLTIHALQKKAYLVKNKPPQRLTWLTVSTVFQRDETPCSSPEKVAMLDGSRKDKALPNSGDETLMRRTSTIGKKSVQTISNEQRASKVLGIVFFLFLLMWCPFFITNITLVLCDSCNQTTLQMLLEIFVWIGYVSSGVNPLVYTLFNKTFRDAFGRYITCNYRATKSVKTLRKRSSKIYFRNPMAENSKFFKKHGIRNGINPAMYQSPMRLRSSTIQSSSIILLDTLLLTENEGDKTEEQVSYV
Assay [9] has as its target 5-hydroxytryptamine receptor 6 (Homo sapiens, UniProt P50406). The assay is described as follows: Binding affinity towards human 5-hydroxytryptamine 6 receptor.
Another assay deals with Cytochrome P450 2C19 (Homo sapiens, UniProt P33261). The experiment in a line: Inhibition of human Cytochrome P450 2C19. It is filed as ADME.
For the next assay, the target named is Cytochrome P450 2C9 (Homo sapiens, UniProt P11712). The experiment in a line: Inhibition of human cytochrome P450 isoform 2C9. The format is ADME.
Chain of Cytochrome P450 2C9 (P11712 whole entry, canonical isoform): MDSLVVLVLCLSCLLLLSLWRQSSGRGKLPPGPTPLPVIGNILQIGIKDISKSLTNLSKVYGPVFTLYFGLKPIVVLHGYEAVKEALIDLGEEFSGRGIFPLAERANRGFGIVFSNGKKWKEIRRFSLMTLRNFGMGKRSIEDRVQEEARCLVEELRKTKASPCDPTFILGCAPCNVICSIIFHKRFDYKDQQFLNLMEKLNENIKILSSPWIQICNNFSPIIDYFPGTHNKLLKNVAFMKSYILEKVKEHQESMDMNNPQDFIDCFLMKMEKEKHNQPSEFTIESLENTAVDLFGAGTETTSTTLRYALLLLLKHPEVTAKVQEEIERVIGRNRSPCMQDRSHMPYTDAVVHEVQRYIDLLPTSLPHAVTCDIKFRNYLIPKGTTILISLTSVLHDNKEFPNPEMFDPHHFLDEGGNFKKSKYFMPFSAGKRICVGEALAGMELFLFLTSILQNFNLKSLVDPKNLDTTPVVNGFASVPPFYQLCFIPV
The target in a further assay is Cytochrome P450 2D6 (Homo sapiens, UniProt P10635). The assay is described as follows: Inhibition of human Cytochrome P450 2D6. It is filed as ADME.
Chain of Cytochrome P450 2D6 (P10635 whole entry): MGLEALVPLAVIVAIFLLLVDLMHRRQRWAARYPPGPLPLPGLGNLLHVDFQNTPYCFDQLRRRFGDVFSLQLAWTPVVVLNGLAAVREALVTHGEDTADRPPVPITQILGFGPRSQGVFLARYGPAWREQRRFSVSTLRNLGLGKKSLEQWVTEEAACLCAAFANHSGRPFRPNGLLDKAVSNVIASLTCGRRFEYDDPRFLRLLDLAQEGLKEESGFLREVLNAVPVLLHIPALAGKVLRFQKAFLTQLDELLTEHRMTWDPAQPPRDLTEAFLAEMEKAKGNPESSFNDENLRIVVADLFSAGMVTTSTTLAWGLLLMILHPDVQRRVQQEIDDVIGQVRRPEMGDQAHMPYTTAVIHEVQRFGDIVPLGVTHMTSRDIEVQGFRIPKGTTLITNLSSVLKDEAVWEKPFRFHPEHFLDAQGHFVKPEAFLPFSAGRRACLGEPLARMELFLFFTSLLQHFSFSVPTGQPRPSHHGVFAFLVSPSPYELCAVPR
The target in the next assay is Cytochrome P450 3A4 (Homo sapiens, UniProt P08684). The assay is described as follows: Inhibition of human Cytochrome P450 3A4. The format is ADME.
Chain of Cytochrome P450 3A4 (P08684 whole entry): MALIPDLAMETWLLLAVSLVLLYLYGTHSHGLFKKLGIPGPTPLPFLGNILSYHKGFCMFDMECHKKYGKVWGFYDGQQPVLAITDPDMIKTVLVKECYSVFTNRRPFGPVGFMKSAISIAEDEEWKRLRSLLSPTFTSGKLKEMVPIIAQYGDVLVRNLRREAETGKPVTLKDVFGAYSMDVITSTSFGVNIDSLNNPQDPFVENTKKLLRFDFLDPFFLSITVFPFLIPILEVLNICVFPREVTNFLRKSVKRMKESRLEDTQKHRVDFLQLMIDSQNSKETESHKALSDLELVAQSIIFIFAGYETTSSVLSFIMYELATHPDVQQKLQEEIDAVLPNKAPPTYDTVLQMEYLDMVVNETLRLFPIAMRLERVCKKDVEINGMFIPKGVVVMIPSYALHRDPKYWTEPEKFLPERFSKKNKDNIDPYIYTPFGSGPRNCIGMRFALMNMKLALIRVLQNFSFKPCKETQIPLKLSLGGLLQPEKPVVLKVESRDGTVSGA
Another assay deals with T3, D(4) dopamine receptor (Homo sapiens, UniProt P21917).
T3 sequence (P21917 whole entry): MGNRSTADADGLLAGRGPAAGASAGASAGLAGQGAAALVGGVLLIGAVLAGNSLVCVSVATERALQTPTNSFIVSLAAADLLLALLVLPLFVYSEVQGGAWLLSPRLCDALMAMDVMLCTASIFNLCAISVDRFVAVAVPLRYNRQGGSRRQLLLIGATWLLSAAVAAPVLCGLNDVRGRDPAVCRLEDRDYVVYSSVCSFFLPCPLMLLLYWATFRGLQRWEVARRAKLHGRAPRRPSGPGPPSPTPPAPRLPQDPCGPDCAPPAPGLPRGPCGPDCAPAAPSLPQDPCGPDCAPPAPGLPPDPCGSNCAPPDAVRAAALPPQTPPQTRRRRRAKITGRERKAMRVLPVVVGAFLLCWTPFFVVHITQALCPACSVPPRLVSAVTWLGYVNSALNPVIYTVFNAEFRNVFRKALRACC
The assay is described as follows: Binding affinity towards cloned human dopamine D4 receptor was determined.

In a further assay the target is D(3) dopamine receptor (Homo sapiens, UniProt P35462). The experiment in a line: Binding affinity towards cloned human dopamine D3 receptor was determined.
Chain of D(3) dopamine receptor (P35462 whole entry): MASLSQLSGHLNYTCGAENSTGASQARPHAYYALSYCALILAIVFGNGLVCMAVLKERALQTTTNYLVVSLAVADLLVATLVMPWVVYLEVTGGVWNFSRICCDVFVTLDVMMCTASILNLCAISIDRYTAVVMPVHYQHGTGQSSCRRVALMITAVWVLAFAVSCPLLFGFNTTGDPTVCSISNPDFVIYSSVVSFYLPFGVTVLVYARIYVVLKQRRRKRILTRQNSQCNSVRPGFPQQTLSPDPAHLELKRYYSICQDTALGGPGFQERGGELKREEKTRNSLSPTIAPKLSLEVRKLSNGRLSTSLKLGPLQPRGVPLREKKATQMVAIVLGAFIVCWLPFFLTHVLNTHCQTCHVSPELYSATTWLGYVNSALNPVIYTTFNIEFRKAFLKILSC
Assay [10] deals with T4, 5-hydroxytryptamine receptor 1F (Homo sapiens, UniProt P30939).
T4 sequence (P30939 whole entry): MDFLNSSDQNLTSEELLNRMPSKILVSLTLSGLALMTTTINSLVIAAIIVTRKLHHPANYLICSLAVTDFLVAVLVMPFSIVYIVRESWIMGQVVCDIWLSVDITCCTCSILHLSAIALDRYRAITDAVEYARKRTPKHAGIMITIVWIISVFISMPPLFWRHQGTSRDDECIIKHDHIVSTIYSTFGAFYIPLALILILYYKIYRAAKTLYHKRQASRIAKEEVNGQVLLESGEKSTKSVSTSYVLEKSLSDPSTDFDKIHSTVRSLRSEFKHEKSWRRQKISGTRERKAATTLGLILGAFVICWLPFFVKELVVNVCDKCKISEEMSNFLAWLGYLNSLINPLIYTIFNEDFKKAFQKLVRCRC
The experiment in a line: Binding affinity towards cloned human 5-hydroxytryptamine 1F receptor was determined.

Assay [11] deals with 5-hydroxytryptamine receptor 5A (Homo sapiens, UniProt P47898). The assay is described as follows: Binding affinity towards cloned human 5-HT5A receptor was determined.
Chain of 5-hydroxytryptamine receptor 5A (P47898 whole entry): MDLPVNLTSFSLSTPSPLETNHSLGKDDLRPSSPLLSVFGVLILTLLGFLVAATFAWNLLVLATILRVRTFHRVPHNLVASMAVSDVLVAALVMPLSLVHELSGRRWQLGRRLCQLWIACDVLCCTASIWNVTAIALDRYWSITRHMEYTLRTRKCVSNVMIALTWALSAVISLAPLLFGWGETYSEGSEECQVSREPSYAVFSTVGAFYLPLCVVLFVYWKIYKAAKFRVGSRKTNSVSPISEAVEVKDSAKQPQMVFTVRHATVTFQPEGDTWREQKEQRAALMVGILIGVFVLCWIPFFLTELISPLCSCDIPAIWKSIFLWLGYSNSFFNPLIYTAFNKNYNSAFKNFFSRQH
In another assay the target is T5, Cytochrome P450 1A2 (Homo sapiens, UniProt P05177).
T5 sequence (P05177 whole entry): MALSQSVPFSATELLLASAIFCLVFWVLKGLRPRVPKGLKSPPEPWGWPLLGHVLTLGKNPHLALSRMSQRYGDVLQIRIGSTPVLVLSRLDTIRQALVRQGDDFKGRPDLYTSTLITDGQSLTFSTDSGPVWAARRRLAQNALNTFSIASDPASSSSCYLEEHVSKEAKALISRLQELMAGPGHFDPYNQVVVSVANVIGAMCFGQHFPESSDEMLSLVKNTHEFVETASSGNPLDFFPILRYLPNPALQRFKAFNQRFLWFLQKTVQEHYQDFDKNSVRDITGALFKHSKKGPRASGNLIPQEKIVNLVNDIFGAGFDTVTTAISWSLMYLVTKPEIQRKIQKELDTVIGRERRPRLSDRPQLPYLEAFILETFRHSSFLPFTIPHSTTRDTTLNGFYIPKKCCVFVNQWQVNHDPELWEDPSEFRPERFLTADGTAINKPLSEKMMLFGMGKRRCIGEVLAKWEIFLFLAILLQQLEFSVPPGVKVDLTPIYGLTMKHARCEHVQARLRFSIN
The assay is described as follows: Inhibition of human Cytochrome P450 1A2. It is filed as ADME.

Chain of 5-hydroxytryptamine receptor 7 (P34969 whole entry): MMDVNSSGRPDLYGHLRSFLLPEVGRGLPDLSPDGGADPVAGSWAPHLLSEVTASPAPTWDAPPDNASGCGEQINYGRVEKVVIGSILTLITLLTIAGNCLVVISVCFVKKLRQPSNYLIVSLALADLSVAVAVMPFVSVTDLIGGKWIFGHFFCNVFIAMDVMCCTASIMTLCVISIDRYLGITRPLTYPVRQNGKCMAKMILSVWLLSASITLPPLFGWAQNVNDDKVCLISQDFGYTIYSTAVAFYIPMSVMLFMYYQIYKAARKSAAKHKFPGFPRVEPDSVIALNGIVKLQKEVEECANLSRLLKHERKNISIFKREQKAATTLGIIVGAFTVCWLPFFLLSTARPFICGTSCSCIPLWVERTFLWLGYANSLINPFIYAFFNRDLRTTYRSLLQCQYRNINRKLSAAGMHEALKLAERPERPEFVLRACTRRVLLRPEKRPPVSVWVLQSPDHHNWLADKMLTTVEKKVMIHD
Chain of 5-hydroxytryptamine receptor 2A (P28223 whole entry): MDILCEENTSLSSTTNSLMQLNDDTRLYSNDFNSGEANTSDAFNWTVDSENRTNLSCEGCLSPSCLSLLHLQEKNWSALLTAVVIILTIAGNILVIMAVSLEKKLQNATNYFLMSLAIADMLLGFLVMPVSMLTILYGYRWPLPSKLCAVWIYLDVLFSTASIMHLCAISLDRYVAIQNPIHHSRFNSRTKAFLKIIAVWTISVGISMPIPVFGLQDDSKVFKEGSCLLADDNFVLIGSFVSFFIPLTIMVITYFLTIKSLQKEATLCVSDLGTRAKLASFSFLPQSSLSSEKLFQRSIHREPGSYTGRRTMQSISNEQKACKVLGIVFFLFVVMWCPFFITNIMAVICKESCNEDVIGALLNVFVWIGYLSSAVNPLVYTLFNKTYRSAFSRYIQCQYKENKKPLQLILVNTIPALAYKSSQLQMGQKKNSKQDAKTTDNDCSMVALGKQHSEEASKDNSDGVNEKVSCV
Chain of 5-hydroxytryptamine receptor 6 (P50406 whole entry): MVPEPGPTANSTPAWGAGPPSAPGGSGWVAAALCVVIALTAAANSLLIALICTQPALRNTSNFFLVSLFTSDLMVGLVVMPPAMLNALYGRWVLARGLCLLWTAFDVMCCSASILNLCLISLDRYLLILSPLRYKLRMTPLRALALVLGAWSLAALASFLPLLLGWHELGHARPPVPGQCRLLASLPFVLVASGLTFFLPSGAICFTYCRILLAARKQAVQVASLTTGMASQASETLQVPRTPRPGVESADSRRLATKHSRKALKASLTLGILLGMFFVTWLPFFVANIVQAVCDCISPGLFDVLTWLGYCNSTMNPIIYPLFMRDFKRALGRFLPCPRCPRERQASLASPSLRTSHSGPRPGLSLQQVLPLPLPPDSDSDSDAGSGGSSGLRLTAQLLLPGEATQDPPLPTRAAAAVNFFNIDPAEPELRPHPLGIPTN

What is called Ki is the equilibrium dissociation constant of an inhibitor or competing ligand from its target. The low end stands for tighter binding, the high end for weaker binding. Regarding `O=C1c2ccccc2CCCN1CCN1CCC(Oc2ccc(F)cc2)CC1`, the inhibitory constant (Ki) in assay [1] is 31.6 nM; in assay [2], 4.47 nM.

Turning to `O=C1c2ccccc2CCCN1CCN1CCC(n2nnc3ccccc32)CC1`, the Ki in [1] is 269 nM; in [2], 14.1 nM.

Take `O=C1c2ccccc2CCCN1CCN1CCC(Oc2ccccc2)CC1`: the inhibition constant Ki is 155 nM in assay [1] and 20.4 nM in [2].

In the case of `O=C1c2ccccc2CCCN1CCN1CCC(c2c[nH]c3ccccc23)CC1`, the inhibition constant Ki in assay [1] was 1.7 nM; in assay [2] it was 0.407 nM.

As for `O=C1CC(CN2CCC(Oc3ccccc3)CC2)CCc2ccccc21` (stereo not given), the Ki in assay [2] is 18.6 nM. In other words, the double-digit nanomolar range.

Turning to `O=C1c2ccccc2CCCC1CCN1CCC(Oc2ccccc2)CC1` (stereo not given), in assay [2], the Ki is 25.1 nM.

In the case of `COc1ccccc1C1CCN(CC2CCc3ccccc3C(=O)C2)CC1` (stereo not given), the Ki in assay [2] was 11.2 nM.

As for `O=C1c2ccccc2CCCN1CCN1CCC(n2ccc3ccccc32)CC1`, the Ki in assay [1] was 19.5 nM; in assay [2], 2.75 nM.

Turning to `O=C1c2ccccc2CCCN1CCN1CCC(n2c(=O)oc3ccccc32)CC1`, the Ki in assay [1] was 977 nM; in assay [2], 27.5 nM.

For `Cc1ccc(OC2CCN(CCN3CCCc4ccccc4C3=O)CC2)cc1`, the Ki in assay [1] is 55 nM; in assay [2], 9.12 nM.

With `Cc1ccccc1OC1CCN(CCC2CCCc3ccccc3C2=O)CC1` (stereo not given), the inhibition constant (Ki) in assay [2] is 11.2 nM.

As to `O=C1c2ccccc2CCCN1CCN1CCC(n2c(O)nc3ccccc32)CC1`, the inhibition constant (Ki) in [1] is more than 1580 nM; in assay [2], 10.2 nM.

Take `O=C1c2ccccc2CCCN1CCN1CCC(n2ccc3cc(F)ccc32)CC1`: the inhibition constant Ki is 6.92 nM in assay [1] and 0.562 nM in assay [2].

Take `O=C1c2ccccc2CCCN1CCN1CCC(n2c(=O)oc3cc(F)ccc32)CC1`: the inhibition constant Ki in assay [1] was 186 nM; in assay [2], 9.33 nM.

Consider `O=C(c1ccc(F)cc1)C1CCN(CCN2CCCc3ccccc3C2=O)CC1`, for which the Ki was 17 nM in [1] and 1.66 nM in assay [2].

Regarding `O=C1c2ccccc2CCCN1CCN1CCC(Oc2ccc(Cl)cc2)CC1`, the inhibition constant Ki in assay [1] is 74.1 nM; in [2] it was 11.7 nM.

Consider `O=C(c1ccc(Cl)cc1)C1CCN(CCN2CCCc3ccccc3C2=O)CC1`, for which the Ki in [1] is 77.6 nM; in assay [2], 2.51 nM.

The IC50 is the concentration that gives 50% inhibition. For `O=C1c2ccccc2CCCN1CCN1CCC(n2c(=O)[nH]c3cc(F)ccc32)CC1`, the Ki was 479 nM in assay [3]; more than 3980 nM in assay [4]; more than 10000 nM in [5]; 2400 nM in assay [6]; 302 nM in assay [1]; 3310 nM in assay [7]. Moreover, the Ki in [8] is 1000 nM; in assay [2] it was 2.24 nM; in [9], more than 5010 nM; at D(4) dopamine receptor, 1230 nM; at D(3) dopamine receptor it was 1700 nM; in assay [10], more than 10000 nM. Also, the Ki in assay [11] was 1480 nM. The half-maximal inhibitory concentration (IC50) was more than 100000 nM against Cytochrome P450 2C19; 35000 nM at Cytochrome P450 2C9; 10000 nM at Cytochrome P450 2D6; more than 100000 nM on Cytochrome P450 3A4; 62000 nM at Cytochrome P450 1A2.

With `O=C1c2ccccc2CCCN1CCN1CCC(n2nnc3cc(F)ccc32)CC1`, the Ki in assay [1] was 49 nM; in [2], 2.04 nM.
